Measured values published in patent publication US9827316B2, “Cardiovascular disease treatment and prevention” (priority 2013, dated 2017).

How the values were obtained:
[1] = Nitric oxide gas bubbled through carrier, change in weight; type: physicochemical; conditions: NO bubbled 40 hr, 25 ° C.
Method: This example illustrates one technique for preparing a composition in accordance with one embodiment of the invention. An accurate amount of a carrier (HNC 167-62) (see below) was introduced into a system. The carrier weight used in these experiments was approximately 250 g and the vessel size was 500 ml. The vessel was equipped with a mechanical stirrer, gas inlet, and gas outlet and was previously purged with argon for about an hour. The temperature of the carrier was kept at about 25-30° C. NO gas regulated at 5 psi (1 psi is about 6,900 Pa) and was then introduced at a controlled rate of about 1 bubble/s with continuous stirring. […] After 6 hours, the weight of the carrier had increased by 0.15%, by 12 hours by 0.25%, and by 24 hours by 0.56%. These increases in weight were believed to be significant considering the relative small molecular weight of NO versus the carrier. […] The carrier also can solidify upon cooling if the carrier is initially a solid at lower temperature.
Each carrier was taken in a 500 mL three necked flask equipped with a mechanical stirrer, gas inlet and a gas outlet. The system was purged with argon for one hour at room temperature (25° C.). Then nitric oxide gas was bubbled into the system. Then, nitric oxide gas was bubbled through carrier for stipulated amount of time. The changes in weight and color were noted. […]

[2] = Laser Doppler capillary blood flow in humans, 10,000 ppm NO in closed chamber (Example 5); type: in vivo, human; conditions: positive control, 1/10% in alcohol applied to skin
Source text: The formulation used in these studies contained nitric oxide dispersed in a lipid matrix. […] Nitric oxide is a very rapid acting molecule, and these studies used a system that employed laser Doppler with a covered chamber. The formulation was placed into the chamber and then attached to the skin by an adhesive layer on the covering. This provided a stable measuring device as determined by multiple normal evaluations of the capillary blood flow without treatment of nitric oxide.
A known positive control, methyl nicotinate, was applied to the skin at a concentration of 1/10% in alcohol. […] The vascular dynamics are such that when the blood vessels dilate physical parameters follow Bernoulli's law. This states that as one increases the diameter of a tube containing a liquid to flow will increase but the pressure and the speed of the liquid will decrease. The laser Doppler device accurately measured these parameters.
The test product was labeled as 10,000 ppm NO (nitric oxide). The study participants had 100 mg of the test product applied in a closed Hilltop chamber on the forearm. […]
A Moor Instruments DRT4 Laser Doppler Blood Flow Monitor (Devon, England) was used in these studies. The laser Doppler technique measured blood flow in the microcapillaries of the skin that are close to the skin surface and the blood flow in underlying arterioles and venules that help to regulate skin temperature. […]

[3] = Laser Doppler circulation in five human subjects (Example 8); type: in vivo; conditions: positive control formulation, 0.1%
Source text: This example illustrates delivery of nitric oxide formulations to five human subjects, using procedures and formulations similar to those discussed in Example 5. Each person served as their own control for the testing. A Moor Instruments Laser Doppler was used to determine circulation. […] The formulations used produce positive, almost immediate results when applied to the skin which, in these studies, was manifested by vasodilatation of the cutaneous vascular system.
For each subject, the following creams were applied: a negative control formulation (containing no NO), 0.010 gram of a 10,000 ppm NO formulation, 0.020 gram of a 10,000 ppm NO formulation, and a positive control formulation containing 0.1% methyl nicotinate. The formulations were prepared using procedures similar to those discussed in Example 1.

## OCCCO [1,3-Propanediol, 1,3-propanediol]
[1]
  % Wt. gain: 0.09%

## COC(=O)c1cccnc1 [methyl nicotinate]
[2]
  laser Doppler response of skin blood flow: rapid response typical of the vasodilator
[3]
  vasodilatation: vasodilatation was observed
